Assay results from patent US9029080B2, “Screening assay for insecticides” (priority 2008, dated 2015).
pIC50: −log10 of the molar value.

target: T1, ShaI/KChIP (Drosophila melanogaster, UniProt P17971); test: ShaI/KChIP FLIPR membrane potential assay, KCl depolarization; format: cell-based; conditions: not given
T1 construct: expressed in transfected cells; subclone 18-13-20
T1 sequence (P17971 with tags, fused parts or gaps isoform P17971-1): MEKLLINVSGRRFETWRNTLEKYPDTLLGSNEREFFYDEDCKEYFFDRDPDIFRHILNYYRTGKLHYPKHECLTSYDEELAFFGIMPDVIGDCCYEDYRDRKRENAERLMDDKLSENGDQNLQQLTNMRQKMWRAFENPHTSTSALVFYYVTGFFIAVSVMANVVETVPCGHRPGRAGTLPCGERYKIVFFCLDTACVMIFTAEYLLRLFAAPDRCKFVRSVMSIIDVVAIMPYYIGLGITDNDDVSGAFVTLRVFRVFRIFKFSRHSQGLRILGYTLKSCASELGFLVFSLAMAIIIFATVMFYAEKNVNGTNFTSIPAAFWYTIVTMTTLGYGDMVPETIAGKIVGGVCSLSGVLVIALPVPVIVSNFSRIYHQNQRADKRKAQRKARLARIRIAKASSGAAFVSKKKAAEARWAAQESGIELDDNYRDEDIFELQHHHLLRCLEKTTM
Method: This assay uses two fluid additions to permit the detection of activators and antagonists in a single experiment (FIG. 17). In screening, test compounds are added in the first addition and allowed to incubate for three minutes. An activating dose of KCl is then introduced in the second addition and the fluorescence read for an additional three minutes. Controls are run for both additions.
Cells were dispensed in a 50 μl volume containing 7,500 cells into 384-well TC clear/black assay plates (Greiner 781091) using a Multidrop 384 dispenser, incubated at ambient temperature for one hour (to reduce edge effects), and incubated overnight at 37° C./5% CO2. The cells were assayed 18-24 hours after seeding, at which point they were just approaching confluency in the wells. Culture medium was removed by flicking and tapping it out of the plate, and cells were loaded with 20 ul/well of 1× blue membrane potential dye in assay buffer for 30 minutes at 25° C. After 30 minutes the assay plate was placed into the FLIPR and run using a two-addition protocol. The first addition (5×, 5 ul) contained 2.5% DMSO in assay buffer. The pipetting height was set at 15 and the speed 20. The plate was read for three minutes after this addition. The second addition (2×, 25 ul) was either assay buffer or 120 mM isometrically-substituted KCl (i.e., KCl substituted for NaCl on a 1:1 molar basis). The height was 20 and the speed 25. Aspirate speeds were set at the lowest values and no hold or expel volumes applied. The plate was read for an additional three minutes after the second addition. The exported statistics were typically configured as stat1=average of 190-200 (the interval just before the first addition) and stat2=maximum of 260-maximum allowed. Subtract bias was set at 1 and negative control correction was OFF. Z′ statistics (an index of “screenability”, Z′>0.5=single-pass screen) were calculated using the following formula: Z′=1−((3σmax+3σmin)/(Iμmax−μminI)).
FIG. 32: BIOMOL compounds—primary screening data. ScreenWorks screenshots showing primary FLIPR data for BIOMOL compound screening. ShaI/KChIP 20 cells were plated at 7500 cells/well in 384-well assay plates and screened the following day. Culture medium was removed by flicking the plates and the cells were loaded with 20 ul 1× membrane potential dye per well for 0.5 hours at 25° C. A two-addition protocol was used. The first addition was 5 ul 5× control or compound in 2.5% DMSO in assay buffer (0.5% [final]) read for 180 sec, and the second addition was 25 ul 2× control or 120 mM isometrically-substituted KCl in assay buffer (0-60 mM [final]) read for an additional 180 sec. Statistics were exported using the average of reads 180-200 and the maximum of reads 260-maximum allowed. Subtract bias was set at 1 and negative control correction was OFF. Control columns ½ and 23/24 are described starting on pg. 53 of this document. Inset: Screenshot of group averages for the control and compound wells highlighted in the primary data screen.
The 3222 unique members of the BioFocus SoftFocus Ion Channel Libraries #1-4 (#SF101-04) were screened in 384-well four-point mode against ShaI/KChIP at 10 uM in a combined activator and antagonist screen. The same FLIPR protocol was used as for the BIOMOL screening and was carried out over four non-consecutive days. The following compound preparation protocol was used to prepare screening plates: Briefly, ShaI-KChIP cells were seeded in 384-well plates at 7500 cells/well in 50 ul and incubated overnight at 37° C./5% CO2. The next day, culture medium was removed, 20 ul of 1×FMP dye was added, and the cell plate was incubated at 27° C. for 30 minutes. After incubation, the cell plate was placed into the Tetra and a two-addition protocol was used. The 1st addition was 5 μl of 5× compound (50 μM) with a three minute read. […] The 2nd addition was 25 ul of 2× activation buffer (120 mM isometric KCl substitution for NaCl) and read for an additional two minutes. […]

Compound	inhibition at 10 µM [%]	inhibition at 25 µM [%]
Cc1ccc(C2(Cc3cc(C)on3)C(=O)Nc3ccc(OC(F)(F)F)cc32)cc1 (centres unmarked)	40.1	
CC1ON=C(c2ccc(N(C)C)cc2)N(Cc2cccc(F)c2)C1=O (centres unmarked)	41.3	
Cc1ccccc1C1(Cc2cccc(C#N)c2)C(=O)Nc2ccc(F)cc21 (centres unmarked)	55.5	
Cc1c(C(=O)NCc2ccc(C(F)(F)F)cc2)sc(=O)n1CCc1c[nH]c2ccccc12	33.3	
Cc1ccc(C2(Cc3ccncc3)C(=O)Nc3ccc(OC(F)(F)F)cc32)cc1 (centres unmarked)	29.1	
O=C(NCc1cccc(C(F)(F)F)c1)c1cn(CCOc2ccc(F)cc2)c(=O)s1	30.2	
Cc1c(C(=O)NCc2ccc(F)cc2)sc(=O)n1Cc1ccc(Cl)c(Cl)c1	38	
O=C1Nc2cc(F)ccc2C1(Cc1ccc(C(F)(F)F)nc1)c1cccc(F)c1 (centres unmarked)	42.7	
CC1=NOC(Cc2ccccc2)C(=O)N1CC(=O)c1ccccc1F (centres unmarked)	41.6	
COc1ccc(Cl)cc1CC1(C)C(=O)Nc2ccc(F)cc21 (centres unmarked)	32	
Cc1cc(CC2(c3cccc(F)c3)C(=O)Nc3cc(F)ccc32)no1 (centres unmarked)	54.9	
Cc1ccsc1C1(C)C(=O)Nc2ccccc21 (centres unmarked)	56.8	
NC(N)=NC(=O)c1nc(Cl)c(N)nc1N [Amiloride, 3,5-diamino-6-chloro-N-(diaminomethylene)pyrazine-2-carboxamide, reference compound]		80 to 100
Cc1ccc(C2(Cc3cccc(C(N)=O)c3)C(=O)Nc3cc(F)ccc32)cc1 (centres unmarked)	57.5	
Cc1noc(C)c1CC1(c2ccccc2)C(=O)Nc2c(Cl)cccc21 (centres unmarked)	33	
Cc1ccsc1C1(Cc2cccc(C#N)c2)C(=O)Nc2cc(F)ccc21 (centres unmarked)	58	
Cc1ccc(C2(Cc3c(C)noc3C)C(=O)Nc3cc(F)ccc32)cc1 (centres unmarked)	35.2	
COc1ccc2c(c1)C(C)(Cc1ccc(Cl)s1)C(=O)N2 (centres unmarked)	38.3	
Cc1nc(CC2(c3ccccc3)C(=O)Nc3cc(F)ccc32)cs1 (centres unmarked)	42.5	
NC(=O)c1cccc(CC2(c3cccc(F)c3)C(=O)Nc3cc(F)ccc32)c1 (centres unmarked)	54.1	
N#Cc1cccc(CC2(c3ccccc3)C(=O)Nc3ccc(OC(F)(F)F)cc32)c1 (centres unmarked)	32.1	
CC1(Cc2ccccc2C#N)C(=O)Nc2ccccc21 (centres unmarked)	39.7	
CC1(Cc2ccccc2C#N)C(=O)Nc2cc(OC(F)(F)F)ccc21 (centres unmarked)	31.2	
O=C1Nc2ccc(OC(F)(F)F)cc2C1(Cc1ccccn1)c1ccccc1 (centres unmarked)	39.1	
CC1ON=C(c2cccc(Cl)c2)N(Cc2ccc3c(c2)OCO3)C1=O (centres unmarked)	31.5	
Cc1ccc(C2(Cc3csc(C)n3)C(=O)Nc3cccc(Cl)c32)cc1 (centres unmarked)	46	
COC(=O)c1ccc(CC2(c3cccc(F)c3)C(=O)Nc3cccc(Cl)c32)o1 (centres unmarked)	41.5	

Compound	inhibition at 10 µM [%]	inhibition at 25 µM [%]
Cc1nc(CC2(c3cccc(F)c3)C(=O)Nc3ccc(OC(F)(F)F)cc32)cs1 (centres unmarked)	34	
COc1ccc(C(C)=O)cc1CC1(c2ccc3c(c2)OCO3)C(=O)Nc2ccccc21 (centres unmarked)	35.2	
Cc1cccnc1C1=NOC(Cc2ccccc2)C(=O)N1CCOc1ccc(F)cc1 (centres unmarked)	36.2	
CC1ON=C(c2cccc(Cl)c2)N(Cc2cccc(C#N)c2)C1=O (centres unmarked)	38.7	
CC1(Cc2cccc(F)c2)C(=O)Nc2ccc(OC(F)(F)F)cc21 (centres unmarked)	33.5	
Cc1cccnc1C1=NOC(Cc2ccccc2)C(=O)N1CCc1ccccc1 (centres unmarked)	33.3	
Cc1ccc(C2(Cc3csc(C)n3)C(=O)Nc3cc(F)ccc32)cc1 (centres unmarked)	29.3	
CC1(c2ccccc2)C(=O)Nc2ccccc21 (centres unmarked)	42.6	
Cc1nc(CC2(c3sccc3C)C(=O)Nc3ccc(OC(F)(F)F)cc32)cs1 (centres unmarked)	37.8	
CC1(Cc2cc(Cl)ccc2C(F)(F)F)C(=O)Nc2ccccc21 (centres unmarked)	32.5	
Cc1c(C(=O)NCc2ccc([N+](=O)[O-])cc2)sc(=O)n1Cc1ccc(OC(F)(F)F)cc1	30.2	
Cc1ccc(C2(Cc3ccncc3)C(=O)Nc3cc(F)ccc32)cc1 (centres unmarked)	48.5	
COc1ccc(Cl)cc1C1=NOCC(=O)N1CCOc1ccc(F)cc1	38.7	
NC(=O)c1cccc(CC2(c3ccccc3)C(=O)Nc3c(Cl)cccc32)c1 (centres unmarked)	33.3	
Cc1noc(C)c1CC1(c2ccccc2)C(=O)Nc2ccc(OC(F)(F)F)cc21 (centres unmarked)	50.4	
Cc1nc(CC2(c3ccccc3)C(=O)Nc3ccc(OC(F)(F)F)cc32)cs1 (centres unmarked)	31.4	
O=C(NCc1cccc(C(F)(F)F)c1)c1cn(CCc2c[nH]c3ccccc23)c(=O)s1	35	
CCC1(c2sccc2C)C(=O)Nc2ccccc21 (centres unmarked)	52	
O=C1Nc2cc(Cl)cc(Cl)c2C1(Cc1ccncc1)c1ccccc1 (centres unmarked)	36.4	
O=C1Nc2ccc(F)cc2C1(Cc1ccccn1)c1ccc(Cl)cc1 (centres unmarked)	56.8	
CC1ON=C(Cc2ccccc2)N(CCc2c[nH]c3ccccc23)C1=O (centres unmarked)	29.6	
CCOc1ccc(C2=NOC(C)C(=O)N2Cc2cccc(F)c2)cc1 (centres unmarked)	52.7	
CC1ON=C(c2ccccc2F)N(Cc2cccc(F)c2)C1=O (centres unmarked)	30.2	
COc1ccc(C2(Cc3ccc(C(F)(F)F)o3)C(=O)Nc3ccc(F)cc32)c(OC)c1 (centres unmarked)	60.3	
Cc1nc(CC2(c3cccc(F)c3)C(=O)Nc3cc(F)ccc32)cs1 (centres unmarked)	37.5	
CC1(Cc2ccc(F)c(Cl)c2)C(=O)Nc2ccc(F)cc21 (centres unmarked)	52.6	
CC1(Cc2ccccc2C#N)C(=O)Nc2cc(-c3ccccc3Cl)ccc21 (centres unmarked)	63.3	

same assay, conditions: ShaI/KChIP 20 cells, three consecutive days, duplicate plates; read-out: IC50 range

Compound	pIC50
NC(N)=NC(=O)c1nc(Cl)c(N)nc1N [Amiloride, 3,5-diamino-6-chloro-N-(diaminomethylene)pyrazine-2-carboxamide, reference compound]	4.54 to 4.70

same assay, conditions: ShaI/KChIP 20 cells, three consecutive days; standard deviation 3 uM; read-out: IC50 mean

Compound	pIC50
NC(N)=NC(=O)c1nc(Cl)c(N)nc1N [Amiloride, 3,5-diamino-6-chloro-N-(diaminomethylene)pyrazine-2-carboxamide, reference compound]	4.62

same assay, conditions: read-out: inhibition of ShaI/KChIP response, arbitrary cutoff

Compound	inhibition at 25 µM [%]
O=C(O)c1ccccc1Nc1cccc(C(F)(F)F)c1 [flufenamic acid, reference compound]	≥ 55
NC(N)=NC(=O)c1nc(Cl)c(N)nc1N [Amiloride, 3,5-diamino-6-chloro-N-(diaminomethylene)pyrazine-2-carboxamide, reference compound]	≥ 55

target: T2, octopamine receptor (OctR, CG6919 dmOa2) (Drosophila melanogaster, UniProt Q9VCZ3); test: OctR clone 55 FLIPR Fluo-4 calcium assay; format: cell-based; conditions: clone 55, same as published cAMP data
T2 construct: expressed in transfected cells; host or cells: CHO stably expressing G-alpha-16
Method: FIG. 62. Cells were plated at 10K/well in 384 well plates and allowed to incubate overnight at […]. The cells were assayed 18-24 hours after seeding. Media was removed and cells were dye loaded for 60 minutes with 2 μM Fluo-4. After 1 hour, dye was removed and 20 μl of buffer added to the plate and placed into FLIPR. The 1st addition was antagonist dose response curves and the 2nd addition was agonist dose response curves. Antagonists were challenged with 100 nM Octopamine. In addition, these compounds were tested in the parental cell line CHO-Galpha16.
Cells were plated at 10,000 cells/well in 50 μl into 384-well black TC plates and allowed to incubate overnight at 37° C./5% CO2. The cells were assayed 18-24 hours after seeding. Culture medium was removed by flicking and cells were dye loaded for 60 minutes with 20 μl of 2 μM Fluo-4 in assay buffer plus probenecid at 25° C. After one hour dye was removed by flicking and 20 μL of assay buffer was added, wait 5 min prior to placing into the FLIPR and run using a two-addition protocol. The first addition (20 ul, 2×) was 0.5% DMSO final in assay buffer. The second addition (20 ul, 3×) was either assay buffer or 100 nM octopamine final.

Compound	rank order of potency (agonists)
Clc1cccc(Cl)c1N=C1NCCN1 [clonidine]	naphazoline>octopamine>amitraz>clonidine>tolazoline
